Reference: PubChem BioAssay (NCI)
Several values for one entry are separate records, joined by “and”; a condition that tells them apart may be missing. Identical values can stand only once.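 Step 1: Grow cells in 96-well plates. Step 2: Expose to compound for 48 hours at 5 concentrations. Step 3: Interpolate endpoints linearly; if unreached, use highest concentration. GI50: concentration for 50% inhibition of growth. TGI: total growth inhibition.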

How the values were obtained:
Experiment in all cases: DTP human tumour cell line panel, 48 h
[1] = test system: A498 renal
[2] = test system: CCRF-CEM leukemia
[3] = test system: HOP-62 NSCLC
[4] = test system: IGROV1 ovarian
[5] = test system: MDA-N
[6] = test system: PC-3 prostate
[7] = test system: SK-MEL-28 melanoma
[8] = test system: SK-MEL-5 melanoma
[9] = test system: U251 CNS
[10] = test system: UACC-62 melanoma

Structure (SMILES)	TGI [1] [µM]	TGI [2] [µM]	TGI [3]	TGI [4]	TGI [5]	TGI [6]	TGI [7]	TGI [8] [µM]	TGI [9] [µM]	TGI [10] [µM]	GI50 [2] [µM]	GI50 [3] [µM]	GI50 [4] [µM]	GI50 [5] [µM]	GI50 [7] [µM]
Cc1ccc2c3c1O[C@H]1c4nc5ccccc5cc4C[C@@]4(O)[C@@H](C2)N(CC2CC2)CC[C@]314	30.7	22.3	31.3 µM	> 100 µM	25.4 µM	26.5 µM	> 100 µM	19.2	18.7	23.5	–	–	–	–	–
CN(C)c1ccc(/C=C2\N=C(c3ccccc3)N(c3nc4c(Cl)cc(Cl)cc4s3)C2=O)cc1	92.3	23.6	> 100 µM	> 100 µM	56.8 µM	> 100 µM	> 100 µM	> 100	> 100	> 100	–	–	–	–	–
CSc1n[n+](C)cc(N)c1N	> 100	> 100	> 100 µM	> 100 µM	> 100 µM	> 100 µM	> 100 µM	> 100	> 100	> 100	–	–	–	–	–
COc1cccc(-c2cc(=O)c3cc(C)cnc3[nH]2)c1	> 100	> 100	> 100 µM	> 100 µM	0.0213 µM	> 100 µM	> 100 µM	3.17	> 100	> 100	–	–	–	–	–
COC1C(O)=C2C(=O)OC(C)(O)/C=C/C=C\C=C/C=C/C(c3ccccc3)NC(=O)/C=C/C=C/C=C/C=C/C2(C)C1O (centres undefined)	0.0976	–	0.212 µM and 0.193 µM	0.15 µM and 0.168 µM	0.141 µM and 0.17 µM	0.136 µM and 0.159 µM	0.175 µM and 0.927 µM	0.164	0.0382	0.258	< 0.001	0.041	0.0303	0.0329	0.257
CCCCCCCCOCC1S(=O)(=O)OCCOS1(=O)=O	> 100	> 100	> 100 µM	> 100 µM	> 100 µM	> 100 µM	> 100 µM	> 100	> 100	> 100	–	–	–	–	–
CC[C@H]1C=CCC[C@@]2(C[C@@H]3CC[C@@H]4[C@H](C(=O)OCCCCCCCCCCCCCCCC(=O)N(CCCN)C[C@@H](O)CCN)[C@]5(CCC[C@@H](C)O5)NC(=[N+]34)N2)O1	1.74	–	2.94 µM	> 3.82 µM	1.14 µM	1.96 µM	2.9 µM	0.173	1.68	0.239	–	–	–	–	–
CCCCCc1c(CCCC)c(=O)[nH]c2cc(CNCC(OC)OC)ccc12	28.9	19.2	33.5 µM	29.6 µM	24 µM	25.5 µM	12.2 µM	21	23.9	12.2	–	–	–	–	–
Cc1nn(-c2ccccc2)c(C)c1/C=N/NC(=O)c1sc(=S)n(-c2ccccc2)c1N	59.3	> 100	> 100 µM	1.79 µM	> 100 µM	> 100 µM	48 µM	> 100	> 100	> 100	–	–	–	–	–
CN(C)Cc1cc(C(=O)O)cc(CN(C)C)c1O	> 100	> 100	> 100 µM	> 100 µM	> 100 µM	> 100 µM	> 100 µM	> 100	> 100	> 100	–	–	–	–	–
CC(C)n1c(=O)c2nn3c(=O)n(C(C)C)c(=O)c3nn2c1=O	> 100	> 100	> 100 µM	> 100 µM	> 100 µM	> 100 µM	> 100 µM	> 100	–	> 100	–	–	–	–	–
O=[N+]([O-])C(=C(NCc1ccccc1)NCc1ccccc1)C(Cl)=C(Cl)Cl	> 100	50.7	> 100 µM	> 100 µM	74.7 µM	> 100 µM	> 100 µM	36	–	98.7	–	–	–	–	–
O=C(O)C(Cc1cccs1)C(=O)O	> 100	> 100	> 100 µM	> 100 µM	> 100 µM	> 100 µM	> 100 µM	> 100	> 100	> 100	–	–	–	–	–
Fc1cccc2nc(-c3ccccc3)cc(OCc3ccccc3)c12	> 100	> 100	> 100 µM	> 100 µM	> 100 µM	> 100 µM	> 100 µM	> 100	> 100	> 100	–	–	–	–	–
c1ccc(N=NNNc2ccc(-c3nc4ccccc4[nH]3)cc2)cc1	> 100	56.1	> 100 µM	> 100 µM	> 100 µM	82.3 µM	> 100 µM	> 100	> 100	–	–	–	–	–	–
COc1ccc(N=C/C=C/Nc2ccc(OC)cc2)cc1	27.2	> 37.2	12.1 µM	25.1 µM	14.4 µM	26.1 µM	29.1 µM	19.5	10.2	27.5	–	–	–	–	–
COc1cccc(C2c3cc4c(cc3OC(N3CCOCC3)C2C)OCO4)c1O (centres undefined)	20.8	35.3	26 µM	53.7 µM	4.58 µM	> 58.6 µM	> 61.8 µM	18.4	12.7	40.2	–	–	–	–	–
O=C1CC(O)c2c(Cl)sc(Cl)c21 (centres undefined)	42.6	4.68	29.4 µM	22.1 µM	44.2 µM	28.5 µM	13.5 µM	43.5	20.2	31.5	–	–	–	–	–
c1ccc2c(c1)SC1Sc3ccccc3[S+]21 (centres undefined)	> 100	49.6	> 100 µM	50.5 µM	53.6 µM	> 100 µM	41.4 µM	22.7	45.5	37.4	–	–	–	–	–
CO[P@]1(=O)O[C@@H](c2ccccc2)[C@H](O)[C@]1(O)c1ccccc1	> 100	> 100	–	> 100 µM	> 100 µM	> 100 µM	> 100 µM	> 100	> 100	> 100	–	–	–	–	–
NC1CCC(c2cc3ccccc3s2)(N2CCCCC2)CC1 (centres undefined)	22.9	2.45	4.5 µM	3.26 µM	3.2 µM	3.59 µM	3.11 µM	4.16	3.05	6.25	–	–	–	–	–
